How the values were obtained:
EN PA = EN PA (Influenza A virus, UniProt P15659); assay: EN PA FRET Inhibition Assay; format: biochemical; conditions: read-out: Potency
[1] = test system: Influenza strain A549 A/WSN/33 (H1N1); assay: Influenza Antiviral Assay; format: cell-based, Influenza A virus; conditions: Influenza A virus, A549, 20 h, neuraminidase fluorescence readout, read-out: % Inhibition

| SMILES | IC50 (EN PA) [µM] | EC50 [1] [µM] |
| --- | --- | --- |
| CNC(=O)c1nn(CC2(n3c4ccccc4c4ccccc43)CCCC2)cc(O)c1=O [Compound 896] | < 0.1 | < 20 |
| O=C(O)c1nn(CC2(n3ccc4cccnc43)CCCC2)cc(O)c1=O [Compound 422] | < 0.1 | < 20 |
| CNC(=O)c1nn(CC2(c3cc(C)c4cccnc4c3)CCCC2)cc(O)c1=O [Compound 888] | < 0.1 | < 20 |
| CCC(NC(=O)c1nn(CC2(c3cccc(C(F)(F)F)c3)CCCC2)cc(O)c1=O)C(F)(F)F (centres unmarked) [Compound 500, 5-hydroxy-4-oxo-N-(1,1,1-trifluorobutan-2-yl)-1-((1-(3-(trifluoromethyl)phenyl)cyclopentyl)methyl)-1,4-dihydropyridazine-3-carboxamide] | 0.1 to 1 | < 20 |
| CNC(=O)c1nn(CC2(c3ccc(C)cc3)CC2)cc(O)c1=O [Compound 656] | 0.1 to 1 | > 100 |
| CCC(=O)c1nn(CC2(n3cc(C)c4cccnc43)CCCC2)cc(O)c1=O [Compound 827] | < 0.1 | < 20 |
| CC1(C)CC(Cn2cc(O)c(=O)c(C(=O)NCc3ccccc3)n2)(c2ccccc2)C1 [Compound 798] | 0.1 to 1 | > 100 |
| NC(=O)c1nn(CC2(c3cccc(C(F)(F)F)c3)CCCC2)cc(O)c1=O [Compound 602] | 0.1 to 1 | < 20 |
| CNC(=O)c1nn(CC2(n3c4c(c5cccnc53)CCC4)CCCC2)cc(O)c1=O [Compound 813] | < 0.1 | < 20 |
| CON(C)C(=O)c1nn(CC2(n3cc(C)c4cccnc43)CCCC2)cc(O)c1=O [Compound 774] | < 0.1 | < 20 |
| CNC(=O)c1nn(CC2(c3ccc(C(F)(F)F)cc3)CCCC2)cc(O)c1=O [Compound 685] | < 0.1 | < 20 |
| CNC(=O)c1nn(CCc2cccc3ccccc23)cc(O)c1=O [Compound 614] | 0.1 to 1 | 20 to 100 |
| O=C(c1nn(CC2(n3cc(Cl)c4cccnc43)CCCC2)cc(O)c1=O)N1CCC1 [Compound 794] | < 0.1 | < 20 |
| O=C(NCc1ccc2[nH]ncc2c1)c1nn(CC2(c3cccc(C(F)(F)F)c3)CCCC2)cc(O)c1=O [Compound 669] | < 0.1 | > 100 |
| CNC(=O)c1nn(CC2(n3cc(Br)c4cccnc43)CCCC2)cc(O)c1=O [Compound 680] | < 0.1 | < 20 |
| CNC(=O)c1nn(CC2(c3cccc(-c4ccccc4)c3)CCCC2)cc(O)c1=O [Compound 674] | < 0.1 | < 20 |

Reference: patent publication US10364226B2, “Pyridazinone compounds and uses thereof” (priority 2013, dated 2019)
